Patent publication EP0082501A1, “Beta-lactam compound and a pharmaceutical composition containing the same” (KYOWA HAKKO KOGYO CO., LTD, priority 1981, dated 1983)
In brackets after ≈: the same amount, converted by molar mass.

Key:
Experiment in all cases: Antibacterial effect, dilution method on Mueller-Hinton agar (MIC)
Assay type in all cases: cell-based
[1] = system: Staphilococcus aureus 209-P
[2] = system: Escherichia coli NIHJ C-2; details: NIHJC2
[3] = system: Krebsiella pneumoniae 8045
Serratia marcescens T-26 = details: T26
Proteus morganii 4298 = details: Morganella morganii
[4] = system: Enterobacter aerogenes F-1948; details: Klebsiella aerogenes, F1948
[5] = system: Pseudomonas aerginosa 145
[6] = system: Pseudomonas sepatia F-2251; details: F2251
[7] = system: Pseudomonas maltphilia F-3438; details: F3438
Proteus vulgaris 6897 = system: Proteus vulgaris 6897
Proteus rettgeri 4289 = details: Providencia rettgeri

Compound	MIC [1] [µg/mL]	MIC [2] [µg/mL]	MIC [3] [µg/mL]	MIC (Serratia marcescens T-26) [µg/mL]	MIC (Proteus morganii 4298) [µg/mL]	MIC [4] [µg/mL]	MIC [5] [µg/mL]	MIC [6] [µg/mL]	MIC [7] [µg/mL]	MIC (Proteus vulgaris 6897) [µg/mL]	MIC (Proteus rettgeri 4289) [µg/mL]
CO/N=C(\C(=O)N[C@@H]1C(=O)N2C(C(=O)O)=C[C@H](N=[N+]=[N-])C[C@H]12)c1csc(N)n1 [Exs. 5 and 17, [4R, 6R, 7S]-7-[2-(2-amino-4-thiazolyl)-2-syn-methoxyiminoacetamido]-4-azido-1-azabicyclo [4,2,0]oct-2-en-8-oxo-2-carboxylic acid]	1.56 (≈ 3.84 µM)	0.1 (≈ 0.246 µM)	0.02 (≈ 0.0492 µM)	6.25 (≈ 15.4 µM)	≤ 0.01	25 (≈ 61.5 µM)	6.25 (≈ 15.4 µM)	12.5 (≈ 30.8 µM)	> 100		
CO/N=C(\C(=O)N[C@@H]1C(=O)N2C(C(=O)O)=C[C@@H](N=[N+]=[N-])C[C@H]12)c1csc(N)n1 [Ex.26, [4S,6R,7S]-7-[2-(2-amino-4-thiazolyl)-2-syn-methoxyiminoacetamido]-4-azido-1-azabicyclo[4,2,0]oct-2-en-8-oxo-2-carboxylic acid]	6.25 (≈ 15.4 µM)	0.05 (≈ 0.123 µM)	0.02 (≈ 0.0492 µM)	6.25 (≈ 15.4 µM)	0.02 (≈ 0.0492 µM)	25 (≈ 61.5 µM)	12.5 (≈ 30.8 µM)	25 (≈ 61.5 µM)	> 100	≤ 0.01	≤ 0.01
CO/N=C(\C(=O)N[C@@H]1C(=O)N2C(C(=O)O)=C[C@@H](Sc3ccncc3)C[C@H]12)c1csc(N)n1 [Ex.23, sodium [4S,6R,7S]-7-[2-(2-amino-thiazol-4-yl)-2-syn-methoxyimino]-acetamido-4-(pyridin-4-yl)-thio-1-azabicyclo[4,2,0]oct-2-en-8-oxo-2-carboxylate]	3.13	0.39	0.2	25	0.2	50	12.5	12.5	> 100	≤ 0.01	0.02
CC(=O)Oc1ccc(C(=O)O/N=C(\C(=O)N[C@@H]2C(=O)N3C(C(=O)O)=C[C@H](N=[N+]=[N-])C[C@H]23)c2csc(N)n2)cc1OC(C)=O [Ex. 6, [4R,6R,7S]-7-[2-(2-amino-4-thiazolyl)-2-syn-(3,4-diacetoxy)-benzoyloxyimino-acetamido]-4-azido-l-azabicyclo[4,2,0]oct-2-en-8-oxo-2-carboxylic acid]	3.13 (≈ 5.11 µM)	0.05 (≈ 0.0816 µM)	0.02 (≈ 0.0327 µM)	0.05 (≈ 0.0816 µM)	0.05 (≈ 0.0816 µM)	3.13 (≈ 5.11 µM)	0.1 (≈ 0.163 µM)	0.02 (≈ 0.0327 µM)	25 (≈ 40.8 µM)	≤ 0.01	≤ 0.01

Other lines, results leading:

MIC [1] [µg/mL]	MIC [2] [µg/mL]	MIC [3] [µg/mL]	MIC (Serratia marcescens T-26) [µg/mL]	MIC (Proteus morganii 4298) [µg/mL]	MIC [4] [µg/mL]	MIC [5] [µg/mL]	MIC [6] [µg/mL]	MIC [7] [µg/mL]	MIC (Proteus vulgaris 6897) [µg/mL]	MIC (Proteus rettgeri 4289) [µg/mL]	Compound
3.13 (≈ 5.78 µM)	0.78 (≈ 1.44 µM)	0.39 (≈ 0.72 µM)	6.25 (≈ 11.5 µM)	0.78 (≈ 1.44 µM)	50 (≈ 92.3 µM)	12.5 (≈ 23.1 µM)	25 (≈ 46.2 µM)	> 100	0.02 (≈ 0.0369 µM)	0.2 (≈ 0.369 µM)	CO/N=C(\C(=O)N[C@@H]1C(=O)N2C(C(=O)O)=C[C@H](Sc3nnnn3-c3ccccc3)C[C@H]12)c1csc(N)n1 [Ex. 13, [4R,6R,7S]-7-[2-(2-amino-4-thiazolyl)-2-syn-methoxyiminoacetamido]-4-(1-phenyl-1,2,3,4-tetrazol-5-yl)-thio-l-azabicyclo[4,2,0]oct-2-en-8-oxo-2-carboxylic acid]
6.25 (≈ 13 µM)	0.1 (≈ 0.209 µM)	0.02 (≈ 0.0417 µM)	6.25 (≈ 13 µM)	≤ 0.01	50 (≈ 104 µM)	12.5 (≈ 26.1 µM)	25 (≈ 52.1 µM)	> 100	≤ 0.01	≤ 0.01	CO/N=C(\C(=O)N[C@@H]1C(=O)N2C(C(=O)O)=C[C@H](Sc3nnnn3C)C[C@H]12)c1csc(N)n1 [Ex.15, [4R,6R,7S]-7-[2-(2-amino-4-thiazolyl)-2-syn-methoxyiminoacetamido]-4-(1-methyl-1,2,3,4-tetrazol-5-yl)-thio-1-azabicyclo[4,2,0]oct-2-en-8-oxo-2-carboxylic acid]
